Data as given in patent US10308643B2, “Heterocyclic compound” (Takeda Pharmaceutical Company Limited, priority 2015, dated 2019).

What was measured:
Type in all cases: biochemical
HDAC6 enzyme = molecular target: T1, HDAC6 enzyme (Homo sapiens, UniProt Q9UBN7); assay: HDAC1/6 Enzyme Inhibitory Assay (HDAC-Glo I/II Assay kit), HDAC6; conditions: 1 μM test compound, wells without enzyme = 100% inhibition; for inhibition at 1 µM: read-out: HDAC6 inhibitory rate (%) (1 μM)
T1 construct: transducing full length HDAC1 and HDAC6 genes into Sf-9 insect cells; GST; purchased SignalChem; host or cells: Sf-9 insect cells
T1 sequence (Q9UBN7 1-1215): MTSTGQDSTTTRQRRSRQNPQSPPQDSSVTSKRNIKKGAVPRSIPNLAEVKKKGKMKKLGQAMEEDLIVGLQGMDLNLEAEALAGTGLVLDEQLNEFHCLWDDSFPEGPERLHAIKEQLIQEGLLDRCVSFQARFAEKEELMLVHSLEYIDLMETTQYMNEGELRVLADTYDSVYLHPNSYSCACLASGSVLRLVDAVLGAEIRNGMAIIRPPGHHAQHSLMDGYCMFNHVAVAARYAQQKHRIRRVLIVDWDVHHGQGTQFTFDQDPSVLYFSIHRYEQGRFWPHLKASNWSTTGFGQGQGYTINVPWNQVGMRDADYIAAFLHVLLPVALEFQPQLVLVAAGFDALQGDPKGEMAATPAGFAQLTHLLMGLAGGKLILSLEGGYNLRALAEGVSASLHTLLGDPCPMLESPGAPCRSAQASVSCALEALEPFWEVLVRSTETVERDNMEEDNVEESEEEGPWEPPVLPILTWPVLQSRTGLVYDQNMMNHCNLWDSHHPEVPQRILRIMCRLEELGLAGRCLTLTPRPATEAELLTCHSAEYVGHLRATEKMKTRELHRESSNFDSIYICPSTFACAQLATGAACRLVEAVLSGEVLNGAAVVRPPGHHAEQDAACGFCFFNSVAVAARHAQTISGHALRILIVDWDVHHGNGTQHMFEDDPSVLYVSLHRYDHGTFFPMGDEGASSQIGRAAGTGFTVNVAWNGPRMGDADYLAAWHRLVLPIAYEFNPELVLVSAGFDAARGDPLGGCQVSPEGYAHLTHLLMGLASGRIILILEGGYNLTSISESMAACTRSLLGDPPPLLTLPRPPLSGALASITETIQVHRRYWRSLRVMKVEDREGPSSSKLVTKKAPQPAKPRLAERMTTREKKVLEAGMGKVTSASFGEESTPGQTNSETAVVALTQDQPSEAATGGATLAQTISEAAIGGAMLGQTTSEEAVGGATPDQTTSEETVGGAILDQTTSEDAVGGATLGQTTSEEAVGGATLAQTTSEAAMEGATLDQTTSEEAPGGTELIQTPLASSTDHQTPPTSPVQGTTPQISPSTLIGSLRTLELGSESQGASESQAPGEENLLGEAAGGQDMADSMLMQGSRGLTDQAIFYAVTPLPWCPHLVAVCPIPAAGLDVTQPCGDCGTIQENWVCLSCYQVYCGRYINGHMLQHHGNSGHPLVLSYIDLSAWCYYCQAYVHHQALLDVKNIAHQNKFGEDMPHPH
Procedure, shortened: (§1)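 Full-length human HDAC1 or HDAC6, expressed in Sf-9 cells and GST-purified, was preincubated with compound for 60 min at room temperature in Tris-HCl pH 7.5 buffer with MgCl2, KCl, NaCl, glutathione and Tween-20. HDAC-Glo substrate-developer was then added, and luminescence was read after 20 min. Inhibition was referenced to no-enzyme wells as 100%.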

HDAC1 enzyme = molecular target: T2, HDAC1 enzyme (Homo sapiens, UniProt Q13547); assay: HDAC1/6 Enzyme Inhibitory Assay (HDAC-Glo I/II Assay kit), HDAC1; conditions: 1 μM test compound, wells without enzyme = 100% inhibition; for inhibition at 1 µM: read-out: HDAC1 inhibitory rate (%) (1 μM)
T2 construct: transducing full length HDAC1 and HDAC6 genes into Sf-9 insect cells; GST; purchased SignalChem; host or cells: Sf-9 insect cells
T2 sequence (Q13547 whole entry): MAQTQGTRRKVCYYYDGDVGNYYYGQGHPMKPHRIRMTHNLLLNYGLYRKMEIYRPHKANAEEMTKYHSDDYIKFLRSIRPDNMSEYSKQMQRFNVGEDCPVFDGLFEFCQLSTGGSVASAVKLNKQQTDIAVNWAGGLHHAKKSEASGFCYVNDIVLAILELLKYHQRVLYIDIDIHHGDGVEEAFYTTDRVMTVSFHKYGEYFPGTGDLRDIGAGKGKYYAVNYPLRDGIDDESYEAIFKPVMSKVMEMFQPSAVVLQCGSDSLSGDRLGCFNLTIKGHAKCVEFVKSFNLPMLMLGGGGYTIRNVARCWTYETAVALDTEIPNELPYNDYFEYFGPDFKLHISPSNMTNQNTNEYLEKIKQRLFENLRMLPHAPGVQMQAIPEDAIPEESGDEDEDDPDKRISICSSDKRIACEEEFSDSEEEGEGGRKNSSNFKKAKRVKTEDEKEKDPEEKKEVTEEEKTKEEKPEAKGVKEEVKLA
Procedure, shortened: as §1

HDAC9 enzyme = molecular target: T3, HDAC9 enzyme (Homo sapiens, UniProt Q9UKV0); assay: HDAC9 Enzyme Inhibitory Assay (HDAC-Glo class IIa); conditions: 1 μM test compound, wells without enzyme = 100% inhibition; for inhibition at 1 µM: read-out: HDAC9 inhibitory rate (%) (1 μM)
T3 construct: transducing full length HDAC9 gene into Sf-9 insect cells; made in house; host or cells: Sf-9 insect cells
T3 sequence (Q9UKV0 whole entry, species assumed): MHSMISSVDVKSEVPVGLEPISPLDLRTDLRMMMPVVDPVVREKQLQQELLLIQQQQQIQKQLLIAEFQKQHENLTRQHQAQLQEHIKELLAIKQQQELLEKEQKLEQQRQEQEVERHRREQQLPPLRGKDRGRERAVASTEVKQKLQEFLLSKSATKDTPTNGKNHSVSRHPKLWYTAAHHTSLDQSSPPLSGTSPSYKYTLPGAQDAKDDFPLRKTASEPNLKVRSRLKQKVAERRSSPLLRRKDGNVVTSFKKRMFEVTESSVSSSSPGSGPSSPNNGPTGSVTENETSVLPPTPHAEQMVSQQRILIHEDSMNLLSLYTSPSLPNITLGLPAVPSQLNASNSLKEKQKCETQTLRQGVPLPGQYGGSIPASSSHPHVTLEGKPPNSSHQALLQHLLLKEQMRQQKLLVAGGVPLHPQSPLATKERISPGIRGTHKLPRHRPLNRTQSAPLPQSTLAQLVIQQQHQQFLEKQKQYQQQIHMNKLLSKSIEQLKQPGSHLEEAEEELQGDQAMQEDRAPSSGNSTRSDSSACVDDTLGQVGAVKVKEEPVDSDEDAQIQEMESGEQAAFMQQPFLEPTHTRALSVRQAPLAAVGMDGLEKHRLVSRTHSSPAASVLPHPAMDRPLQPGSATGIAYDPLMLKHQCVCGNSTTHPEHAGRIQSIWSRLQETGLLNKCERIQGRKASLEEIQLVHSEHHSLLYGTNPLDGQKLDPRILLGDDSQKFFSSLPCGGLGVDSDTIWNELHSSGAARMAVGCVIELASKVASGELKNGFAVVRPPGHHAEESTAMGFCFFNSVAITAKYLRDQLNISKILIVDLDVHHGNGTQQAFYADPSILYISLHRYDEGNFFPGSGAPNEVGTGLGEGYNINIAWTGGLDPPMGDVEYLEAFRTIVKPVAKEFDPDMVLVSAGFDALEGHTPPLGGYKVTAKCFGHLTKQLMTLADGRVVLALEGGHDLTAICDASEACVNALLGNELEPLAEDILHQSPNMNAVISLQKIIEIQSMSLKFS
Procedure, shortened: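 Luminescent HDAC-Glo class IIa readout after a 20 min room-temperature reaction; relative inhibition referenced to enzyme-free wells as 100%. Test compound first preincubated 60 min with Sf-9-expressed, Ni-NTA-purified full-length HDAC9 in pH 7.5 Tris buffer containing 135 mM NaCl, 0.6 mM glutathione and 0.01% Tween-20.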

inhibition at 1 µM (HDAC6 enzyme) [%]	inhibition at 1 µM (HDAC1 enzyme) [%]	inhibition at 1 µM (HDAC9 enzyme) [%]	HDAC6 inhibitory rate (%) (1 μM) (HDAC6 enzyme)	HDAC1 inhibitory rate (%) (1 μM) (HDAC1 enzyme; 1 µM)	HDAC9 inhibitory rate (%) (1 μM) (HDAC9 enzyme; 1 µM)	Structure (SMILES)
97	26	95				O=C1CCCN1[C@@H]1CCCC[C@H]1N1Cc2ncc(-c3noc(C(F)(F)F)n3)cc2C1=O [Example 186, 6-((1R,2R)-2-(2-oxopyrrolidin-1-yl)cyclohexyl)-3-(5-(trifluoromethyl)-1,2,4-oxadiazol-3-yl)-6,7-dihydro-5H-pyrrolo[3,4-b]pyridin-5-one]
99	5	47				O=C(N[C@@H]1CCCC[C@H]1N1Cc2ccc(-c3noc(C(F)(F)F)n3)cc2C1=O)C1COC1 [Example 127, N-((1R,2R)-2-(1-oxo-6-(5-(trifluoromethyl)-1,2,4-oxadiazol-3-yl)-1,3-dihydro-2H-isoindol-2-yl)cyclohexyl)oxetane-3-carboxamide]
100	96	99				Cc1cc([C@@H]2CNCC[C@H]2N2Cc3ccc(-c4noc(C(F)(F)F)n4)cc3C2=O)ccc1F (relative stereo) [Example 49, 2-(trans-3-(4-fluoro-3-methylphenyl)piperidin-4-yl)-6-(5-(trifluoromethyl)-1,2,4-oxadiazol-3-yl)isoindolin-1-one]
77	19	81				CC(=O)N1CC[C@@H](c2ccccc2)[C@H](N2Cc3cc(-c4noc(C(F)(F)F)n4)ccc3C2=O)C1 (relative stereo) [Example 73, trans-2-(1-acetyl-4-phenylpiperidin-3-yl)-5-(5-(trifluoromethyl)-1,2,4-oxadiazol-3-yl)isoindolin-1-one]
92	30	90				O=C(Cc1ccc(F)cc1)N1CC(N2Cc3ncc(-c4noc(C(F)(F)F)n4)cc3C2=O)C1 [Example 77, 6-(1-((4-fluorophenyl)acetyl)azetidin-3-yl)-3-(5-(trifluoromethyl)-1,2,4-oxadiazol-3-yl)-6,7-dihydro-5H-pyrrolo[3,4-b]pyridin-5-one]
100	9	73				CC(C)(C#N)C(=O)N[C@@H]1CCCC[C@H]1N1Cc2ccc(-c3noc(C(F)(F)F)n3)cc2C1=O [Example 100, 2-cyano-2-methyl-N-((1R,2R)-2-(1-oxo-6-(5-(trifluoromethyl)-1,2,4-oxadiazol-3-yl)-1,3-dihydro-2H-isoindol-2-yl)cyclohexyl)propanamide]
76	6	72				N[C@@H]1CCCC[C@H]1N1Cc2ccc(-c3noc(C(F)(F)F)n3)cc2C1=O (relative stereo) [Example 7, trans-2-(2-aminocyclohexyl)-6-(5-(trifluoromethyl)-1,2,4-oxadiazol-3-yl)isoindolin-1-one]
99	90	98				Cc1ccc([C@@H]2CNCC[C@H]2N2Cc3ccc(-c4noc(C(F)(F)F)n4)cc3C2=O)cc1F (relative stereo) [Example 48, 2-(trans-3-(3-fluoro-4-methylphenyl)piperidin-4-yl)-6-(5-(trifluoromethyl)-1,2,4-oxadiazol-3-yl)isoindolin-1-one]
91	23	86				CC(=O)N1CCCC(N2Cc3ncc(-c4noc(C(F)(F)F)n4)cc3C2=O)C1 (stereo not drawn) [Example 39, 6-(1-acetylpiperidin-3-yl)-3-(5-(trifluoromethyl)-1,2,4-oxadiazol-3-yl)-6,7-dihydro-5H-pyrrolo[3,4-b]pyridin-5-one]
			96	−2	15	O=C(N[C@@H]1CCCC[C@H]1N1Cc2ccc(-c3noc(C(F)(F)F)n3)cc2C1=O)N1CC2CC1CO2 (stereo partly drawn) [Example 157, N-((1R,2R)-2-(1-oxo-6-(5-(trifluoromethyl)-1,2,4-oxadiazol-3-yl)-1,3-dihydro-2H-isoindol-2-yl)cyclohexyl)-2-oxa-5-azabicyclo[2.2.1]heptane-5-carboxamide]
98	94	99				O=C1c2cc(-c3noc(C(F)(F)F)n3)ccc2CN1C1CCNC[C@@H]1c1ccc(Cl)cc1 (stereo in doubt) [Example 51, 2-(trans-3-(4-chlorophenyl)piperidin-4-yl)-6-(5-(trifluoromethyl)-1,2,4-oxadiazol-3-yl)isoindolin-1-one]
85	31	89				O=C(c1ccccc1)N1CC(N2Cc3ncc(-c4noc(C(F)(F)F)n4)cc3C2=O)C1 [Example 76, 6-(1-benzoylazetidin-3-yl)-3-(5-(trifluoromethyl)-1,2,4-oxadiazol-3-yl)-6,7-dihydro-5H-pyrrolo[3,4-b]pyridin-5-one]
99	5	34				O=C(N[C@@H]1CCCC[C@H]1N1Cc2ccc(-c3noc(C(F)(F)F)n3)cc2C1=O)N1CC(F)(F)C1 [Example 162, 3,3-difluoro-N-((1R,2R)-2-(1-oxo-6-(5-(trifluoromethyl)-1,2,4-oxadiazol-3-yl)-1,3-dihydro-2H-isoindol-2-yl)cyclohexyl)azetidine-1-carboxamide]
99	14	69				CC1(C(=O)N[C@@H]2CCCC[C@H]2N2Cc3ccc(-c4noc(C(F)(F)F)n4)cc3C2=O)CC1(F)F (stereo partly drawn) [Example 111, 2,2-difluoro-1-methyl-N-((1R,2R)-2-(1-oxo-6-(5-(trifluoromethyl)-1,2,4-oxadiazol-3-yl)-1,3-dihydro-2H-isoindol-2-yl)cyclohexyl) cyclopropanecarboxamide]
100	14	54				CN(C(=O)N[C@@H]1CCCC[C@H]1N1Cc2ccc(-c3noc(C(F)(F)F)n3)cc2C1=O)C1CC1 [Example 155, 1-cyclopropyl-1-methyl-3-((1R,2R)-2-(1-oxo-6-(5-(trifluoromethyl)-1,2,4-oxadiazol-3-yl)-1,3-dihydro-2H-isoindol-2-yl)cyclohexyl)urea]
92	37	77				O=C1c2cc(-c3noc(C(F)(F)F)n3)ccc2CN1[C@@H]1CC[C@@H]1Cc1ccccc1 (relative stereo) [Example 60, 2-(cis-2-benzylcyclobutyl)-6-(5-(trifluoromethyl)-1,2,4-oxadiazol-3-yl)isoindolin-1-one]
79	-3	37				CN1CC(C(=O)N[C@@H]2CCCC[C@H]2N2Cc3ccc(-c4noc(C(F)(F)F)n4)cc3C2=O)CC1=O (stereo partly drawn) [Example 120, 1-methyl-5-oxo-N-((1R,2R)-2-(1-oxo-6-(5-(trifluoromethyl)-1,2,4-oxadiazol-3-yl)-1,3-dihydro-2H-isoindol-2-yl)cyclohexyl)pyrrolidine-3-carboxamide]
95	2	42				O=C1C[C@@H](C(=O)N[C@@H]2CCCC[C@H]2N2Cc3ccc(-c4noc(C(F)(F)F)n4)cc3C2=O)N1 [Example 93, (2S)-4-oxo-N-((1R,2R)-2-(1-oxo-6-(5-(trifluoromethyl)-1,2,4-oxadiazol-3-yl)-1,3-dihydro-2H-isoindol-2-yl)cyclohexyl)azetidine-2-carboxamide]
